The source of these data is BindingDB's records for doi:10.1021/jm00155a029 (1986).

The test can be described thus: Compound was tested for the inhibitory effect against Gamma-amino-N-butyrate transaminase from bacteria.

As usually defined, the Ki is a dissociation constant, usually derived from enzyme kinetics or from competition with a known ligand. A high value points to a looser hold on the target. `NC/C=C(\CF)C(=O)O` [(2Z)-4-ammonio-2-(fluoromethyl)but-2-enoate] displayed a Ki of 9 µM.
